In the NIST ThermoML archive (doi:10.1016/j.fluid.2006.01.017):
Numbers after ± are expanded uncertainties.

What was measured:
[1] = refractive index (Na D-line) (dimensionless); conditions: 293.2 K; 101.33 kPa; Liquid; Standard Abbe refractometry
[2] = 293.2 K; 101.33 kPa; Liquid

Row | refractive index [1] | mass density [2] [kg/m3] | Compound
1 | 1.36 ± 0.0004 | – | CCO [ethanol]
2 | 1.3702 ± 0.0004 | 900.6 ± 0.3 | CCOC(C)=O [ethyl acetate]
